Results as given in patent US20250270209A1 (INTERLINE THERAPEUTICS, INC., priority 2022, published 2025).
pIC50: −log10 of the molar value.

Columns and labels:
[1] = molecular target: T1, wild type LRRK2 overexpressed in recombinant HEK-293T cells (Homo sapiens, UniProt Q5S007); experiment: pS935 LRRK2 Cell Assay (HTRF, phospho-LRRK2 Ser935); type: cell-based; details: LRRK2 Inhibition, Table 8, 2 hours compound incubation
T1 construct: host or cells: HEK293T (transient transfection with pCMV-LRRK2 WT plasmid)
In short: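 HEK-293T cells transiently transfected with wild-type LRRK2 for 24 h, plated overnight, then treated 2 h at 37° C with compound (top 10 μM, 3-fold, 9 doses, duplicates, 0.2% DMSO). Lysates probed overnight at 23° C by sandwich HTRF for pSer935; 665/615 nm ratio read.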

LRRK2 wild type enzyme = LRRK2 wild type enzyme (Homo sapiens, UniProt Q5S007); experiment: Biochemical Assay: LRRK2 TR-FRET (LanthaScreen) kinase assay with LRRKtide substrate; details: LRRK2 Inhibition, Table 8
In short: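 Human wild-type LRRK2 (3 nM) preincubated 15 min with compound (11-point, 3-fold, top 10 μM), then reacted 120 min at 23 °C with 400 nM LRRKtide and 25 μM ATP, pH 8.0. Stopped with EDTA; Tb-anti-pLRRKtide TR-FRET read after 30 min.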

T1 sequence (Q5S007 whole entry): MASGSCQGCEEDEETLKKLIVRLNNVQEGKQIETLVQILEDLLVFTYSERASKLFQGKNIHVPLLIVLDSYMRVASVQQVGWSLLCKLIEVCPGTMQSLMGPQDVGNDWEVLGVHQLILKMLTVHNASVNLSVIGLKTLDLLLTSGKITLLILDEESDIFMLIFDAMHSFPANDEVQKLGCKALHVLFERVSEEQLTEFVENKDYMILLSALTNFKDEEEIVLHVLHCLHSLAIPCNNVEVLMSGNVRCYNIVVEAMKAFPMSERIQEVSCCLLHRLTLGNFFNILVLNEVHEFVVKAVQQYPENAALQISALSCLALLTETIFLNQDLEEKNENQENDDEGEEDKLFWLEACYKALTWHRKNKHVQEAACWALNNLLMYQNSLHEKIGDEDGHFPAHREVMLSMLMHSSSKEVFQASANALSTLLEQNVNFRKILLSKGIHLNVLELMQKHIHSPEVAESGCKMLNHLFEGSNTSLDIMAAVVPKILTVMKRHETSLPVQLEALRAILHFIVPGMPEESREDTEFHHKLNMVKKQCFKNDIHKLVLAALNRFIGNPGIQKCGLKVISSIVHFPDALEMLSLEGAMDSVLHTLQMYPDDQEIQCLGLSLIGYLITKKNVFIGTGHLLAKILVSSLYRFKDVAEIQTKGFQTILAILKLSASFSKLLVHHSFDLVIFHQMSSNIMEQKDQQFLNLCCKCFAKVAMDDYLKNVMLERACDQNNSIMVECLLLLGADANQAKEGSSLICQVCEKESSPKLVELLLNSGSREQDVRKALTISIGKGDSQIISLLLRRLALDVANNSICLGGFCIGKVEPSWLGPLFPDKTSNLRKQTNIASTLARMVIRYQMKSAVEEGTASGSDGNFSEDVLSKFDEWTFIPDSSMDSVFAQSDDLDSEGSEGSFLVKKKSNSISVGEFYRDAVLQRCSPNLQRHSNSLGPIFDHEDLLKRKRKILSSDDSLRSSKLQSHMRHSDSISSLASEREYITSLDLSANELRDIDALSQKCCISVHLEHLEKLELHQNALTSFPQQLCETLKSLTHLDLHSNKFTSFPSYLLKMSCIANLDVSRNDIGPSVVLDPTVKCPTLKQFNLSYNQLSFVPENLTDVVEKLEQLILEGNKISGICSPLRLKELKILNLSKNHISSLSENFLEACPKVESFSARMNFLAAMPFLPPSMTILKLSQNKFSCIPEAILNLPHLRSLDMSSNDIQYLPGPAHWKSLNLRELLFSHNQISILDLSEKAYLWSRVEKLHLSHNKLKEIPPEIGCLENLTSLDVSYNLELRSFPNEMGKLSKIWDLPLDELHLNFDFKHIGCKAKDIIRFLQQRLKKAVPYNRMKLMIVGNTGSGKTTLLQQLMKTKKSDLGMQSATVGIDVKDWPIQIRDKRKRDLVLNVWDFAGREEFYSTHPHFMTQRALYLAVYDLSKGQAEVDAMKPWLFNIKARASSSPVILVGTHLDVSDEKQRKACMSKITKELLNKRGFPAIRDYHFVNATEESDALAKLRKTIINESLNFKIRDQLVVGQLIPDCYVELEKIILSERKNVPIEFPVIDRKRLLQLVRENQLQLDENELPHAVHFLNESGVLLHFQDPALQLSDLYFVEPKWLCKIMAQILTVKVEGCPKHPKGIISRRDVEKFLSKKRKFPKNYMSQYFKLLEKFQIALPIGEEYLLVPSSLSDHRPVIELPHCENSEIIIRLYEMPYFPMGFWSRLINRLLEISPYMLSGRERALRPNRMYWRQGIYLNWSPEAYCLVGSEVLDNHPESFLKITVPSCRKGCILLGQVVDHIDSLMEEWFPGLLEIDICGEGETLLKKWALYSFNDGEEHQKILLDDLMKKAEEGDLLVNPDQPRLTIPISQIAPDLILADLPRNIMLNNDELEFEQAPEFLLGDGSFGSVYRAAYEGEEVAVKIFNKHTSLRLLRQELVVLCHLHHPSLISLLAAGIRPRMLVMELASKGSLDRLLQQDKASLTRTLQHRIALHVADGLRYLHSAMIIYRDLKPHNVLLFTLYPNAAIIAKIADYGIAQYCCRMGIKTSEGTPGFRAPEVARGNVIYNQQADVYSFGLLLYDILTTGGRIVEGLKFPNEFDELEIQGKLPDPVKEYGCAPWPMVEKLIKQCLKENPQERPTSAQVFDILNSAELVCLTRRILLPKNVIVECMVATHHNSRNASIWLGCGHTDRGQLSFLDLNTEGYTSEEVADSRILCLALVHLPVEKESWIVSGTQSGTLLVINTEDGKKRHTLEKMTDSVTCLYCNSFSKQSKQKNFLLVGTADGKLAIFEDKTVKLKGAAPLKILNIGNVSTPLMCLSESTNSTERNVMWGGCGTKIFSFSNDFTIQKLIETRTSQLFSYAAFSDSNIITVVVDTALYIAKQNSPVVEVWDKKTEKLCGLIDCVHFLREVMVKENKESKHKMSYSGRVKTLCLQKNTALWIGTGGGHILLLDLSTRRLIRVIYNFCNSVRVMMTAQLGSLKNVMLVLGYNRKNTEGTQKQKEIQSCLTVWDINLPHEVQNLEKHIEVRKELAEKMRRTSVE
Sequence of LRRK2 wild type enzyme (Q5S007 whole entry): as above

SMILES	pIC50 [1]	pIC50 (LRRK2 wild type enzyme)
C[C@@H]1C[C@H](n2c(CC(=O)Nc3cncnc3)nc3cnc4ccc(Cl)cc4c32)CCO1 [Compound 331, N-5-pyrimidinyl{3-[(2R,4R)-2-methyltetrahydro-2H-pyran-4-yl]-12-chloro-3,5,8-triazatricyclo[7.4.0.0^2,6]trideca-1(9),2(6),4,7,10,12-hexaen-4-yl}acetamide]	8.24	9.22
C[C@@H]1C[C@H](n2c(CC(=O)N[C@H]3CCCc4cccnc43)nc3cnc4ccc(C#N)cc4c32)CCO1 [Compound 358, N-[(S)-5,6,7,8-tetrahydro-8-quinolyl]{3-[(2R,4R)-2-methyltetrahydro-2H-pyran-4-yl]-12-cyano-3,5,8-triazatricyclo[7.4.0.0^2,6]trideca-1(9),2(6),4,7,10,12-hexaen-4-yl}acetamide]	7.61	9.22
